Values joined by “and” are separate entries in the source; they are usually repeats but may differ in a detail not shown here. Equal values may be shown once.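 48-hour exposure; five concentrations; linearly interpolated endpoints. Here, GI50 denotes the concentration required for 50% inhibition of growth. The concentration for full growth arrest is given as TGI.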
Assays:
Experiment in all cases: NCI tumour cell line growth inhibition, 48 h
[1] = system: CCRF-CEM leukemia
[2] = system: DLD-1 colon
[3] = system: DMS 114 small cell lung
[4] = system: EKVX NSCLC
[5] = system: HOP-18 NSCLC
[6] = system: KM20L2 colon
[7] = system: SNB-78 CNS
[8] = system: XF 498 CNS
[9] = system: BT-549 breast
[10] = system: HS 578T breast
[11] = system: T-47D breast

Structure (SMILES)	TGI [1]	TGI [2]	TGI [3]	TGI [4]	TGI [5]	TGI [6]	TGI [7]	TGI [8]	GI50 [9]	TGI [9]	GI50 [1]	TGI [10]	GI50 [11]	TGI [11]	GI50 [2]	GI50 [4]	GI50 [5]	GI50 [6]	GI50 [8]
COc1ccccc1/C=C(\NC(=O)c1ccccc1)c1nc2ccc(Cl)cc2[nH]1	> 100 µM	88.9 µM	52.7 µM	78.7 µM	82.6 µM	> 100 µM	> 100 µM	89.5 µM											
O=C(O)c1ccccc1C(=O)c1ccco1	> 100 µM	> 100 µM	> 100 µM	> 100 µM	> 100 µM	> 100 µM	> 100 µM	> 100 µM											
CCOC1c2nc3ccccc3nc2-c2ccccc2N1C(C)=O (stereo unspecified)	> 100 µM	> 100 µM	> 100 µM	> 100 µM	> 100 µM	> 100 µM	> 100 µM	> 100 µM											
N#Cc1c(-c2ccccc2)c(-c2ccccc2)cc2c(=O)c3ccc(Cl)cc3[nH]c12	> 100 µM	> 100 µM		> 100 µM	> 100 µM	> 100 µM		> 100 µM											
O=c1c2ccccc2nc(-c2cccc(Cl)c2)n1NC1OC(CO)C(O)C(O)C1O (stereo unspecified)	> 100 µM		> 100 µM	> 100 µM	> 100 µM	> 100 µM	> 100 µM	> 100 µM											
CCOC(=O)C1=C(C)N(NC(N)=O)C2(N)N(NC(N)=O)C(C)=C(C(=O)OCC)C12C#N (stereo unspecified)		> 100 µM	> 100 µM	> 100 µM		> 100 µM		> 100 µM											
O=[N+]([O-])c1cccnc1S(=O)(=O)c1ccccc1	> 100 µM	7.27 µM	8.53 µM	14.5 µM	25.7 µM	30.3 µM	44 µM	25.8 µM											
CC[n+]1c(-c2ccccc2)c2cc(N)ccc2c2ccc(N)cc21	77 µM and 33 µM and 48.3 µM		10.1 µM	34.2 µM and 42.8 µM and > 100 µM	18.3 µM	25.9 µM			831 nM	3.01 µM and 3.87 µM	2150 nM and 1200 nM and 4940 nM	5.86 µM	323 nM	2.91 µM and 15 µM					
COc1ccc(/C=C/C(=O)c2c(-c3ccccc3)nn(C)c(=O)c2N2CCCCC2)cc1	40.2 µM	82.6 µM	78.4 µM	> 100 µM	73.9 µM	33.8 µM													
Cc1ccc(S(=O)(=O)Nc2ccccc2C(C)(C)C)cc1	63.8 µM	> 100 µM	60.4 µM	> 100 µM		36.7 µM	> 100 µM	44.8 µM											
CNC(=O)OCc1nc(SSc2nc(COC(=O)NC)c(COC(=O)NC)n2C)n(C)c1COC(=O)NC	> 100 µM	> 100 µM	> 100 µM	> 100 µM	> 100 µM	> 100 µM	> 100 µM	> 100 µM											
CCOC(=O)C[C@@]12CCCN[C@]1(C)CCc1ccccc12	> 100 µM	> 100 µM		> 100 µM	> 100 µM	> 100 µM	> 100 µM	> 100 µM											
Cc1ccc(-n2c3nc(=O)n(C)c(=O)c-3nc3ccccc32)c(C)c1	41.6 µM	39.9 µM		21.6 µM	20.1 µM	17.6 µM	44.5 µM	26 µM											
CC(C)(C)C1=NO[C@H]2[C@@H](NC(=O)c3ccccc3)CC[C@@H]12	> 100 µM	> 100 µM	> 100 µM			> 100 µM	> 100 µM	> 100 µM											
CS(=O)(=O)OCCN1CCN(C(=O)c2ccc(Cl)c3c(Nc4ccc(S(=O)(=O)N=C(N)N)cc4)c4ccccc4nc23)CC1	> 100 µM	> 100 µM	> 100 µM			> 100 µM		> 100 µM											
C[n+]1cn(CC(=O)c2ccccc2)c(C(N)=O)c1N	> 100 µM	> 100 µM	64.6 µM	> 100 µM	> 100 µM	> 100 µM	> 100 µM												
O=C1C2C(C(=O)N1Cc1ccccc1)N(Cc1ccccc1)C(=O)N2Cc1ccccc1 (stereo unspecified)	> 100 µM	> 100 µM	> 100 µM	> 100 µM		> 100 µM	> 100 µM	> 100 µM											
C/C(=N\NC(=S)N1CCC1)c1ccccn1		> 100 µM		48.6 µM	> 100 µM	> 100 µM	> 100 µM	> 100 µM		73.3 µM	6.58 nM	> 100 µM	39.5 nM	> 100 µM					

Structure (SMILES)	TGI [1]	TGI [2]	TGI [3]	TGI [4]	TGI [5]	TGI [6]	TGI [7]	TGI [8]	GI50 [9]	TGI [9]	GI50 [1]	TGI [10]	GI50 [11]	TGI [11]	GI50 [2]	GI50 [4]	GI50 [5]	GI50 [6]	GI50 [8]
CN1CCCc2nc3ccccc3n2C1	> 100 µM	> 100 µM	> 100 µM	> 100 µM	> 100 µM	> 100 µM	> 100 µM	> 100 µM											
O=C(Nc1ccccc1C(=O)NC(=O)c1ccccc1NC(=O)c1ccccc1)c1ccccc1	16.4 µM	29.7 µM	9.74 µM	28.3 µM	17.9 µM	15.6 µM		4.38 µM											
N#Cc1ccccc1Sc1ccccc1N	> 100 µM	> 100 µM	> 100 µM	> 100 µM	> 100 µM		> 100 µM	> 100 µM											
CCCCCCCCCCCCCC(=O)O[C@H]1CC[C@H](NC(=O)[C@H](OC)[C@H](O)[C@@H](O)[C@H](O)/C=C/C(C)C)C(=O)N(C)C1	15 µM and 4.85 µM	15 µM and > 23.8 µM	0.817 µM	15 µM and > 23.8 µM	15 µM and > 23.8 µM	15 µM and 3.8 µM	15 µM				2.38 nM				2.78 nM	1360 nM	11.3 µM	< 1.5 nM	4.3 nM
CCCC(O)[C@@]1(CC)CC(C)C(O)(C2(C)C[C@H](C)[C@@H](C(CC)C(=O)C(C)[C@@H](O)[C@H](C)C3OC(O)(C(CC)C(=O)O)[C@@H](C)C(O)C3CC)O2)O1 (stereo partly specified)	7.36 µM	8.86 µM	1.08 µM	4.21 µM	23.9 µM	4.13 µM	31.7 µM	2.43 µM		1.41 µM		2.99 µM							
CCCCCCCCCC1CC(=O)OC23CCCC(=O)C12O3 (stereo unspecified)	> 100 µM	> 100 µM	> 100 µM	> 100 µM	> 100 µM	> 100 µM	> 100 µM	> 100 µM											
Cc1ccc(-n2nc(C(OC3OC(CO)C(O)C(O)C3O)C(O)CO)c3nc4cc(C)c(C)cc4nc32)cc1 (stereo unspecified)	> 100 µM	> 100 µM	> 100 µM	> 100 µM		> 100 µM	> 100 µM	> 100 µM											
O=C([O-])c1ccc([I+]c2ccccc2)cc1	> 100 µM	> 100 µM	> 100 µM	> 100 µM	> 100 µM	> 100 µM	> 100 µM	> 100 µM											
CCC(Oc1ccc(OC)c2c1C(=O)CCC2)C(=O)O (stereo unspecified)	> 100 µM	> 100 µM	> 100 µM	> 100 µM			> 100 µM	> 100 µM											
Cc1nc2ccncc2[nH]1	> 100 µM	> 100 µM	> 100 µM	> 100 µM		> 100 µM		> 100 µM											
O=C1OC(=O)c2c1nc1ccccc1c2-c1ccccc1	> 100 µM	> 100 µM	> 100 µM		> 100 µM	> 100 µM	> 100 µM												
COS(=O)c1cc(Cl)cc(Cl)c1OC(=O)CSSCC(=O)Oc1c(Cl)cc(Cl)cc1S(=O)OC (stereo unspecified)	59.7 µM	40.7 µM	35.3 µM	41.9 µM	> 100 µM	67.2 µM	76.2 µM												
O=C1C=CC2(CCC23C=CC(=O)O3)O1 (stereo unspecified)	> 100 µM	> 100 µM	> 100 µM	> 100 µM	> 100 µM	> 100 µM	> 100 µM	> 100 µM											
C=C1C(=O)O[C@@H]2C[C@@]3(C)[C@H](O)CCC(=C)[C@@H]3C[C@H]12	14.1 µM	16.5 µM	42.2 µM	29.7 µM		20.3 µM	27.8 µM	9.74 µM											
N#CC(C(=O)Nc1ccccc1)C1=C(Cl)C(=O)c2ccccc2C1=O (stereo unspecified)	> 100 µM	40.2 µM	41.7 µM	35.1 µM	22.7 µM	48.9 µM	45.9 µM	30.3 µM											
CCCCCCCCCCCCCCCC(=O)OCC1OC(n2cc(F)c(=O)[nH]c2=O)C(NC(=O)OCc2ccccc2)C(O)C1O (stereo unspecified)	30 µM		33.4 µM	52.8 µM	37.8 µM	41.9 µM	52.1 µM	31.1 µM											
OC1=CN=C(c2ccccc2)Oc2ccccc21	> 100 µM	> 100 µM	> 100 µM	> 100 µM		> 100 µM	> 100 µM												
